According to patent US20240254119A1 (THIRD HARMONIC BIO, INC., priority 2022, published 2024):

Assays:
[1] = test system: CYP3A4; experiment: Hepatocyte CYP induction assay, CYP3A4 gene expression; type: in vitro ADME; conditions: human hepatocytes
Protocol: Exemplary compounds were tested for ability to induce CYP3A4 and/or CYP1A2 in hepatocytes. Procedures and results are described below.
Cryopreserved human hepatocytes were purchased from BioIVT (Baltimore, MD, USA), and they were stored in liquid nitrogen before using. The detailed information of hepatocytes is as follows:
Fresh dosing solutions of test compounds, and Rifampicin were prepared in the incubation medium on the day of dosing.
Cryopreserved hepatocytes were thawed and counted to determine yield, viability was measured. Hepatocytes at the concentrations of 0.7 million/mL were transferred to collagen-coated 96-well plates for attachment (0.1 mL viable cells/well). After allowing 4 to 5 hours for attachment of cells, the plating medium was replaced with Incubation Medium containing 2% (v/v) Matrigel™ (sandwich medium) and the hepatocytes were incubated until use.
All incubations were conducted at 37° C., 5% CO2, and saturated humidity.
The sandwich medium was removed and the hepatocytes were treated with incubation solutions containing test articles in vehicle (0.1% DMSO), or positive control for 24 hours after the cultures were established. The incubation solution was aspirated and replaced with incubation solution containing the same concentrations of test articles, vehicle, or positive controls for an additional 24 hours. The total treatment period was 48 hours. Triplicate were used for each concentration of test compound and positive control.
After treatment period of 48 hours, the incubation solution was aspirated. Hepatocytes were washed once with pre-warmed HBSS and incubated with 140 μL of RLT (lysis buffer from Rneasy 96 Kit) supplemented with 1% β-mercaptoethanol. Plates were then stored at ≤−60° C. freezer until RNA analysis.
Before RNA extraction, the frozen plate was thawed and cell lysates were transferred to 96-well plates. RNA isolation was performed using QIAcube HT System. RNA concentration was measured with NanoDrop ND-2000 spectrophotometer. The purity of RNA preparation was calculated by the ratio of the OD260 nm/OD280 nm and the acceptable range is between 1.8 and 2.2. Reverse transcription was performed to obtain cDNA. Quantification of the selective genes by real time quantitative Polymerase Chain Reaction (qPCR) was performed with TaqMan universal PCR Master Mix on the BIO-RAD CFX 384 Touch Real Time PCR System. The following setting were used: 50° C. for 2 minutes, 95° C. for 10 minutes, 40 cycles of 95° C. for 15 seconds and 60° C. for 1 minute. 18S rRNA was used as the internal standard.
To account for variation in RNA yields and reverse transcription polymerase chain reaction (RT-PCR), the gene of interest in all samples was normalized to an internal control gene (18S ribosomal RNA) (Cttarget gene−Ct18S=ΔCt).
The relative quantitation or change in mRNA level of selected genes induced by each test compound was expressed in relation to the vehicle control sample (Δctcompound−ΔCtvehicle=ΔΔCt). Fold changes in gene expression were determined by taking 2 to the power of this value (2^−ΔΔt).
% of positive control [(fold change in treated sample)−1]/[(fold change in positive control)−1]×100

[2] = Kinetic solubility assay; type: physicochemical; conditions: for Solubility (μM): kinetic solubility, 50 mM PB (pH 7.4), shaken 24 hours at RT
Summary of the method: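 Concentration in the filtrate was determined by UPLC-UV or HPLC-UV with a standard curve. Before that, compound (10 mM DMSO stock) in 50 mM PB at pH 7.4 was agitated 24 h at room temperature, then PTFE-filtered with centrifugation.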

[3] = Three time point assay for plasma, brain and testes distribution after oral dosing; type: in vivo, rat; conditions: rat, oral dosing
Protocol: Exemplary compounds were tested for distribution in plasma, brain and testes tissue following oral dosing of the compounds in rats. Procedures and results are described below.
Male SD Rats were group-housed (up to four animals/sex/cage) in polysulfone cages with certified aspen wood bedding during acclimation and study period.
Certified rodent diet and water was provided to all animals ad libitum, unless fasting for study procedures.
Appropriate amount of test article was accurately weighed and mixed with an appropriate volume of vehicle to get a clear solution or a uniform suspension; vortexing or sonication in water bath may also be need. Animals were dosed within four hours after the formulation is prepared.
For PO dosing, the dose formulation was administered via oral gavage following facility SOPs. The dose volume was determined by the animals' body weight collected on the morning of dosing day. The dose was 10 mg/kg.
Each blood collection (about 1 mL per time point at one or more of 0.5 h, 2 h, 3 h, 5.3 h, and 7 h) was performed from jugular vein or other suitable site of each animal into pre-chilled commercial EDTA-K2 tubes and placed on wet ice until centrifugation.
Blood samples were processed for plasma by centrifugation at approximately 4° C., 3,200 g for 10 min. Plasma was collected respectively and transferred into pre-labeled 96 well plate or polypropylene tubes, quick frozen over dry ice and kept at −60° C. or lower until LC-MS/MS analysis.
Rat brain was perfused with PBS to remove blood before harvest.
After perfusion, brain and testis were homogenized using homogenizing buffer (15 mM PBS (pH7.4):MeOH=2:1) at the ratio of 1:9 (1 g tissue with 9 mL buffer, the dilution ratio is 10). The brain homogenate was kept at −60° C. or lower until LC-MS/MS analysis. General sample processing procedure (brain homogenate & testis homogenate) using 96-well plate: • 1). An aliquot of 40 μL unknown sample, calibration standard, quality control and dilution quality control (if have), single blank, and double blank sample was added to the 96-well plate respectively; • 2). Each sample (except the double blank) was quenched with 400 μL of IS1 respectively (double blank sample was quenched with 400 μL of I), and then the mixture was vortex-mixed for 10 min at 800 rpm and centrifuged for 15 min at 3220×g, 4° C.; • 3). An aliquot of 50 μL supernatant was transferred to another clean 96-well plate and centrifuged for 5 min at 3220×g, 4° C., then the supernatant was directly injected for LC-MS/MS analysis.
• 1. A LC-MS/MS method for the quantitative determination of test compound in biological matrix was developed under Non-GLP compliance. • 2. A calibration curve with at least 6 non-zero calibration standards was applied for the method including LLOQ. • 3. A set of QCs consisting of low, middle, and high concentrations were applied for the method. • 4. N in 1 cassette LC-MS/MS method was developed for samples coming from different studies and the interference among all cassette analytes was evaluated during the method development. • 5. Cassette administration assay was performed if the mass difference (Δmass) among different analytes was more than 4 Da. In this case, interference evaluation was not necessary.
• 1. If sample number within a batch was ≤12, at least one set of standard curve separated with two parts through begin and end of the sequence, was included in the run, and QCs were not required. The recommended injection order was C8, C6, C4, C2, study samples, C7, C5, C3, C1. • 2. If sample number within a batch was >12, one standard curve and two sets of QCs with low, middle and high concentrations were applied for bioanalysis. Meanwhile, QCs number should be more than 5% of study sample number. • 3. Samples with the same types of matrix in different studies were quantified in one analysis run by using the developed N in 1 cassette LC-MS/MS method. • 4. […]

[4] = biological target: T1, CSF-1R (Homo sapiens, UniProt P07333); experiment: Caliper biochemical assay, CSF-1R; conditions: Table 6
T1 construct: purchased Invitrogen PV3249 (lot 662393N)
Summary of the method: (§1)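 Mobility-shift readout: after EDTA quench, fluorescent peptide and product are resolved electrophoretically on a LabChip and measured by fluorescence. Reactions contain enzyme, carboxyfluorescein peptide, ATP, Mn^2+ and compound, run 3 h at 25° C; 100% inhibition control lacks enzyme.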

[5] = biological target: T2, wtKIT (Homo sapiens, UniProt P10721); experiment: Caliper biochemical assay, wtKIT; conditions: Table 6, read-out: KIT Biochemical IC50 avg
T2 construct: 1888289AM in the reaction mixtures
Summary of the method: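 Mobility-shift read-out: after EDTA stop, fluorescent peptide substrate and product resolved electrophoretically on LabChip 3000. Reaction ran 3 h at 25° C with 400 μM ATP, Mn^2+ cofactor, 5.0 nM wtKIT, 1 μM FAM-peptide, pH 7.5 HEPES buffer; no-enzyme wells defined full inhibition.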

[6] = biological target: T3, PDGFRα (Homo sapiens, UniProt P16234); experiment: Caliper biochemical assay, PDGFRα; conditions: Table 6
T3 construct: purchased Millipore 14-467 (lot 26321_ACTI)
Summary of the method: as §1

T2 sequence (P10721 26-976): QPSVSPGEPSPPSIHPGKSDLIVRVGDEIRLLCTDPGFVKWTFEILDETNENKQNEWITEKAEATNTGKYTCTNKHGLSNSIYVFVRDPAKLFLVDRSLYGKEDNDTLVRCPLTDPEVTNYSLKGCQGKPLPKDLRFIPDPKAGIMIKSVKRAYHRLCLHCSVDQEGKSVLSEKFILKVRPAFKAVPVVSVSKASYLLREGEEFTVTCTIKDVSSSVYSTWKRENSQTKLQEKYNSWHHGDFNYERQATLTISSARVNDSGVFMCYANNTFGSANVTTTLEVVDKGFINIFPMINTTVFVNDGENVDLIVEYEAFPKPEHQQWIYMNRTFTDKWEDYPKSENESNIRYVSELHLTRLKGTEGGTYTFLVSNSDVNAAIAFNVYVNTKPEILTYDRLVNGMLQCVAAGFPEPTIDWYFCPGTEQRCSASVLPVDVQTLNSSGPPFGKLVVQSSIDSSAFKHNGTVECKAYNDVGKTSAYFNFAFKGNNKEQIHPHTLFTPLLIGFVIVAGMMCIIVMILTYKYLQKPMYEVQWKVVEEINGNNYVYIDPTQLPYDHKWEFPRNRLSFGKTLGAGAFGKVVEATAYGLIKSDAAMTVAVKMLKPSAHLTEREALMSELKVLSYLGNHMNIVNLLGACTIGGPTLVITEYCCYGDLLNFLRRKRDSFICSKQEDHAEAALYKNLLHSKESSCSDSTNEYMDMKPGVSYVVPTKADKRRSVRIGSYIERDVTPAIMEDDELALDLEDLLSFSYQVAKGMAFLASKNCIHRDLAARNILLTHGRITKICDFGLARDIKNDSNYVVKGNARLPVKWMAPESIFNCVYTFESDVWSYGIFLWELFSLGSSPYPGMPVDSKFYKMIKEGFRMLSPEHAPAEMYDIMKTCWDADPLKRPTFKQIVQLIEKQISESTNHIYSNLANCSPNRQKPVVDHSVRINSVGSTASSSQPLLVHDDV
T3 sequence (P16234 24-1089): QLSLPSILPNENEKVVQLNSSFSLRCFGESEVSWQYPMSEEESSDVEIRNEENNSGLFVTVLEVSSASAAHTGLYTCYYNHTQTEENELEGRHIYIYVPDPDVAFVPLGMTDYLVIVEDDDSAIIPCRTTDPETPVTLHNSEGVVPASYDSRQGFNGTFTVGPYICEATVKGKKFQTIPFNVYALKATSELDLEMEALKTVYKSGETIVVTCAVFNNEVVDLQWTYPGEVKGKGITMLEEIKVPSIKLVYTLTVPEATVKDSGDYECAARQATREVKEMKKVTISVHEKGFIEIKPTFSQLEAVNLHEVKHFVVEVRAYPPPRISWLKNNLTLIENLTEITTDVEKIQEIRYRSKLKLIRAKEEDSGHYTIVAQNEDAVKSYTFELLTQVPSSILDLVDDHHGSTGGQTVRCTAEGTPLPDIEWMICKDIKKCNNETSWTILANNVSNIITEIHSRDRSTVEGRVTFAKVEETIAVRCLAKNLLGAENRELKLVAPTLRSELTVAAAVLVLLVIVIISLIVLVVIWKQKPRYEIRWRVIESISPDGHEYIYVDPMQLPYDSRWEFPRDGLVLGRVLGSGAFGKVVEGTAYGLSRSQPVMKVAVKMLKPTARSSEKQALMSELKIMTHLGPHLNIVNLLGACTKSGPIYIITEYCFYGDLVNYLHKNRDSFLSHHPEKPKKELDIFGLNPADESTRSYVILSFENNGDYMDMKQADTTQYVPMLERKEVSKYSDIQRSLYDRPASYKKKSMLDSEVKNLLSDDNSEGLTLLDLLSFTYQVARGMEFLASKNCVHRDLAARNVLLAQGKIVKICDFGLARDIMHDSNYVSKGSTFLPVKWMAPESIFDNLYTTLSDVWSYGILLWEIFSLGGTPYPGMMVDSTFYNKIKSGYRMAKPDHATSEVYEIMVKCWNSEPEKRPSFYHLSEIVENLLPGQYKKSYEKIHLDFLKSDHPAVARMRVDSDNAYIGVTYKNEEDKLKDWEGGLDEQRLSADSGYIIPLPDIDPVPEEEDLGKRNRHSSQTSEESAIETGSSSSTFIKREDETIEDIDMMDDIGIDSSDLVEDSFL
T1 sequence (P07333 20-972): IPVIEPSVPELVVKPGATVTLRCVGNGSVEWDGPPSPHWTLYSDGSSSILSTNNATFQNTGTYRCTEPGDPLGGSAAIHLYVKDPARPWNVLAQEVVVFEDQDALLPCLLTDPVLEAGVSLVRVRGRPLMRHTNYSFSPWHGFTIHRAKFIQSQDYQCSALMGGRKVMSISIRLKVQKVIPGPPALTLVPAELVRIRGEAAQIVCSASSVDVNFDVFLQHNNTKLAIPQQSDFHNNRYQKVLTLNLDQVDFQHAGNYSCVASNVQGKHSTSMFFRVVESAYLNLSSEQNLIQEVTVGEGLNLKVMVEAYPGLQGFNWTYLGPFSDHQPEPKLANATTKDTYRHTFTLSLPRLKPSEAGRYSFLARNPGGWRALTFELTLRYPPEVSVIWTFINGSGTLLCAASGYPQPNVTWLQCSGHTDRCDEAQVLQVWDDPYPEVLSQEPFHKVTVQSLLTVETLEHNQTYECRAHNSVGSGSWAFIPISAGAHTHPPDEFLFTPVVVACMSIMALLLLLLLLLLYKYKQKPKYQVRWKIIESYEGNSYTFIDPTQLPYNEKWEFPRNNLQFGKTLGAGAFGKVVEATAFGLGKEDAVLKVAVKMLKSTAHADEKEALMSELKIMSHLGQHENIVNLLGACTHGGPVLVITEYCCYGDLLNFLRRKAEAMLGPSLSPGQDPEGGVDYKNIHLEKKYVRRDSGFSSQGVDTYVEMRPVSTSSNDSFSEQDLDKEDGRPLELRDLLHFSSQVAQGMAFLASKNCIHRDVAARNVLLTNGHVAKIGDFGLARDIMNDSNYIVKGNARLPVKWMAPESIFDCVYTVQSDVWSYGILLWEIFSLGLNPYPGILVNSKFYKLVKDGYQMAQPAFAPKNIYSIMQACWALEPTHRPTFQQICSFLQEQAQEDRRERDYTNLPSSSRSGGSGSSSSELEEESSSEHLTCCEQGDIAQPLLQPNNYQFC

In the case of `Cc1ccc(-c2noc(CC(O)C(F)F)n2)cc1NC(=O)c1cnn2ccccc12` (single isomer, unassigned) [Compound I-39], the “CYP 3A4 induction mRNA: Mean fold at 10 μM” value ([1]; donor four) is reported as “++ (induction fold of greater than 2-fold to less than or equal to 3-fold)” and the “Solubility (μM)” value [2] is reported as “**** (a solubility less than or equal to 2 μM)”.
For `COc1ccn2c(C(=O)Nc3cc(-c4noc(CC(O)C(F)F)n4)ccc3C)cnc2c1` (single isomer, unassigned) [Compound I-40], the “CYP 3A4 induction mRNA: Mean fold at 10 μM” value ([1]; donor five) was “++ (induction fold of greater than 2-fold to less than or equal to 3-fold)”, the “CYP 3A4 induction mRNA: Mean fold at 10 μM” value ([1]; donor one) was “+++ (induction fold of greater than 3-fold to less than or equal to 10-fold)” and the Brain concentration ([3]; time point 0.5 h) was 63.2 ng/g. It also gave a Kp brain/plasma ([3]; time point 0.5 h) of 0.09, a Kp testes/plasma ([3]; time point 0.5 h) of 0.17 and a Plasma concentration ([3]; time point 0.5 h) of 712 ng/mL. The Testes concentration ([3]; time point 0.5 h) was 123 ng/g, the Brain concentration ([3]; time point 2 h) was 144 ng/g and the Kp brain/plasma ([3]; time point 2 h) was 0.08. It also gave a Kp testes/plasma ([3]; time point 2 h) of 0.32, a Plasma concentration ([3]; time point 2 h) of 1770 ng/mL and a Testes concentration ([3]; time point 2 h) of 568 ng/g. It also gave a Brain concentration ([3]; time point 7 h) of 65.4 ng/g, a Kp brain/plasma ([3]; time point 7 h) of 0.09 and a Kp testes/plasma ([3]; time point 7 h) of 0.41. For the same compound, the Plasma concentration ([3]; time point 7 h) was 764 ng/mL, the Testes concentration ([3]; time point 7 h) was 300 ng/g and the “Solubility (μM)” value [2] was “**** (a solubility less than or equal to 2 μM)”.
With `Cc1ccc(-c2noc(C3CC(F)(F)C3)n2)cc1NC(=O)c1cnc2ccccn12` [Compound A, reference compound] the “CYP 3A4 induction mRNA: Mean fold at 10 μM” value ([1]; donor two) was “+++ (induction fold of greater than 3-fold to less than or equal to 10-fold)” and the solubility at 24 h ([2]; phosphate buffer, pH 7.4, aqueous buffer, kinetic from dmso stock) was at most 2 µM.
For `COC(=O)N1CC(c2nc(-c3ccc(C)c(NC(=O)c4cnn5ccccc45)c3)no2)C1` [Compound B, reference compound], the “CYP 3A4 induction mRNA: Mean fold at 10 μM” value ([1]; donor four) was “++ (induction fold of greater than 2-fold to less than or equal to 3-fold)”.
For `CCCS(=O)(=O)N1CC(c2nc(-c3ccc(C)c(NC(=O)c4cnc5ccccn45)c3)no2)C1` [Compound C, reference compound], the “CYP 3A4 induction mRNA: Mean fold at 10 μM” value ([1]; donor four) was “+++ (induction fold of greater than 3-fold to less than or equal to 10-fold)”.
For `Cc1ccc(-c2noc([C@H]3C[C@@H]3F)n2)cc1NC(=O)c1cnc2cc(CC(F)(F)F)ccn12` [Compound I-45], the “CYP 3A4 induction mRNA: Mean fold at 10 μM” value ([1]; donor four) was “++ (induction fold of greater than 2-fold to less than or equal to 3-fold)” and the “Solubility (μM)” value [2] was “**** (a solubility less than or equal to 2 μM)”.
For `COc1ccn2c(C(=O)Nc3cc(-c4noc(C5COC5)n4)ccc3C)cnc2c1` [Compound I-51], the “CYP 3A4 induction mRNA: Mean fold at 10 μM” value ([1]; donor four) was “++ (induction fold of greater than 2-fold to less than or equal to 3-fold)” and the “Solubility (μM)” value [2] was “**** (a solubility less than or equal to 2 μM)”.
For `CCc1nc(-c2ccc(C)c(NC(=O)c3cnc4ccccn34)c2)no1` [Compound I-283], the IC50 [4] was at most 50 nM, the “CYP 3A4 induction mRNA: Mean fold at 10 μM” value ([1]; donor two) was “++++ (induction fold of greater than 10-fold)” and the IC50 [5] was at most 50 nM. The “Solubility (μM)” value [2] was “** (a solubility greater than 10 μM and less than or equal to 50 μM)” and the IC50 [6] was 5000 to 30000 nM.
